Assay results as given in patent US20260365671A1, “HETEROCYCLIC COMPOUND” (Takeda Pharmaceutical Company Limited, priority 2022, published 2026).

How the values were obtained:
NF-κB pathway = experiment: TNF-α assay (THP-1 cells differentiated to macrophages with IFN-γ, NF-κB pathway activated with LPS; ELISA); type: cell-based, Human; details: Homo sapiens, THP-1, THP-1 macrophages, compound 30 min, 50 ng/mL LPS 3 hours
Method in brief: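 THP-1 cells differentiated with 25 ng/mL IFN-γ for 24 h, then 30 min with compounds in serum-free medium. NF-κB activated with 50 ng/mL LPS, 3 h at 37 °C. Supernatant TNF-α by ELISA; IC50 from four-parameter logistic fit of % inhibition.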

NLRP3 inflammasome = target: T1, NLRP3 inflammasome (Homo sapiens, UniProt Q96P20); experiment: IL-1β TR-FRET assay (THP-1 cells differentiated to macrophages with IFN-γ, LPS primed, ATP activated; HTRF); type: cell-based; details: THP-1 macrophages, 50 ng/mL LPS priming, compound 30 min, 20 mM ATP 2 hours
T1 construct: IL-1beta HTRF
Method in brief: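 THP-1 cells differentiated with 25 ng/mL IFN-γ for 24 h, primed with 50 ng/mL LPS in serum-free medium for 24 h, then treated with compounds for 30 min before 20 mM ATP activation for 2 h at 37 °C. Secreted IL-1β quantified by HTRF; IC50 from logistic fit of % inhibition.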

T1 sequence (Q96P20 whole entry): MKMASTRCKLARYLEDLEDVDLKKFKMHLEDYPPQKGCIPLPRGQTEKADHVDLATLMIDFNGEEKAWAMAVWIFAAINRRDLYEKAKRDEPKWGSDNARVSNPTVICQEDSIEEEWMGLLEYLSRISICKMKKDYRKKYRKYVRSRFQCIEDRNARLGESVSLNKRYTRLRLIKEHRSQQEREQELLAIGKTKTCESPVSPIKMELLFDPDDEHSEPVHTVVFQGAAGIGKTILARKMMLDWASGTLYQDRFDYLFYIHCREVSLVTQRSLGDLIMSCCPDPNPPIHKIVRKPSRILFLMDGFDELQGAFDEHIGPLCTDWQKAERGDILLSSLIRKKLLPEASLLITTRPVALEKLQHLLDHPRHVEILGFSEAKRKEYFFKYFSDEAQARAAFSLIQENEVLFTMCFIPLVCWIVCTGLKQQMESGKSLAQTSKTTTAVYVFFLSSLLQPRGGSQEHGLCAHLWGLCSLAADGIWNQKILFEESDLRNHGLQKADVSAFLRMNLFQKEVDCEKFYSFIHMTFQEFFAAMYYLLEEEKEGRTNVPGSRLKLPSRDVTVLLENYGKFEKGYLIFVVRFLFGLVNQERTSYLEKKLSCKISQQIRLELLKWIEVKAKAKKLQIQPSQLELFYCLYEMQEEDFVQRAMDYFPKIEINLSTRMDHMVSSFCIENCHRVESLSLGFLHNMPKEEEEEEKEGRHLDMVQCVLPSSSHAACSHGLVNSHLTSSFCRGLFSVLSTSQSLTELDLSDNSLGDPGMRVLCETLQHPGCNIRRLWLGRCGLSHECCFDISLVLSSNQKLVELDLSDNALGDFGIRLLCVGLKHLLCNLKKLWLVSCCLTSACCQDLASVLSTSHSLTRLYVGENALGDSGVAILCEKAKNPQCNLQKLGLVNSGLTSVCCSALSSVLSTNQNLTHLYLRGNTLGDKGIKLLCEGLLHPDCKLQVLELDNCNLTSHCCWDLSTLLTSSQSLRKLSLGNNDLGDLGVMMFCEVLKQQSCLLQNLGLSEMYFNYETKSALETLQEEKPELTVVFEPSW

SMILES | IC50 (NF-κB pathway) [nM] | IC50 (NLRP3 inflammasome) [nM]
Cc1cc(C)c(-n2cc3sc(NCC4(O)COC4)nc3n2)c(O)c1 [Example 161, 3-({[2-(2-hydroxy-4,6-dimethylphenyl)-2H-pyrazolo [3,4-d][1,3]thiazol-5-yl]amino}methyl)oxetan-3-ol] | > 30000 | 16000
Cc1cc(C)c(-n2cc3sc(NCC(O)C(F)(F)F)nc3n2)c(O)c1 (stereo not shown) [Example 163, 3,5-dimethyl-2-{5-[(3,3,3-trifluoro-2-hydroxypropyl)amino]-2H-pyrazolo[3,4-d][1,3]thiazol-2-yl}phenol] | > 30000 | 670
Cc1cc(C)c(-n2cc3sc(NCC(O)c4ccccn4)nc3n2)c(O)c1 (stereo not shown) [Example 164, 2-(5-{[2-hydroxy-2-(pyridin-2-yl)ethyl]amino}-2H-pyrazolo[3,4-d][1,3]thiazol-2-yl)-3,5-dimethylphenol] | > 30000 | 1000
COCC(O)CNc1nc2nn(-c3c(C)cc(C)cc3O)cc2s1 (stereo not shown) [Example 166, 2-{5-[(2-hydroxy-3-methoxypropyl)amino]-2H-pyrazolo[3,4-d][1,3]thiazol-2-yl}-3,5-dimethylphenol] | > 30000 | 760
Cc1cc(C)c(-n2cc3sc(NC(CO)CO)nc3n2)c(O)c1 [Example 168, 2-{[2-(2-hydroxy-4,6-dimethylphenyl)-2H-pyrazolo[3,4-d][1,3]thiazol-yl]amino}propane-1,3-diol] | > 30000 | 370
Cc1cc(C)c(-n2cc3sc(NC4(CF)COC4)nc3n2)c(O)c1 [Example 170, 2-(5-{[3-(fluoromethyl)oxetan-3-yl]amino}-2H-pyrazolo[3,4-d][1,3]thiazol-2-yl)-3,5-dimethylphenol] | > 30000 | 2000
Cc1cc(C)c(-n2cc3sc(NCC(O)C(F)F)nc3n2)c(O)c1 (stereo not shown) [Example 171, 2-{5-[(3,3-difluoro-2-hydroxypropyl)amino]-2H-pyrazolo[3,4-d][1,3]thiazol-2-yl}-3,5-dimethylphenol] | > 10000 | 160
Cc1cc(C)c(-n2cc3sc(NC[C@@H](C)OC(F)F)nc3n2)c(O)c1 [Example 172, 2-(5-{[(2R)-2-(difluoromethoxy)propyl]amino}-2H-pyrazolo[3,4-d][1,3]thiazol-2-yl)-3,5-dimethylphenol] | > 10000 | 750
Cc1cc(C)c(-n2cc3sc(NC45CC(OC(F)F)(C4)C5)nc3n2)c(O)c1 [Example 173, 2-(5-{[3-(difluoromethoxy)bicyclo[1.1.1]pentan-1-yl]amino}-2H-pyrazolo[3,4-d][1,3]thiazol-2-yl)-3,5-dimethylphenol] | > 10000 | 3500
COc1cc(C)c(-n2cc3sc(N[C@@H]4C[C@@H](F)CN(C5CC5)C4)nc3n2)c(O)c1 [Example 174, 2-(5-{[(3R,5R)-1-cyclopropyl-5-fluoropiperidin-3-yl]amino}-2H-pyrazolo[3,4-d][1,3]thiazol-2-yl)-5-methoxy-3-methylphenol] | > 30000 | 110
Cc1cc(O)c(-n2cc3sc(N[C@@H]4C[C@@H](F)CN(C)C4)nc3n2)c(CC(F)F)c1 [Example 175, 3-(2,2-difluoroethyl)-2-(5-{[(3R,5R)-5-fluoro-1-methylpiperidin-3-yl]amino}-2H-pyrazolo[3,4-d][1,3]thiazol-2-yl)-5-methylphenol] | > 30000 | 3.7
Cc1cc(O)c(-n2cc3sc(N[C@@H]4C[C@@H](F)CN(C)C4)nc3n2)c(COC(F)F)c1 [Example 176, 3-[(difluoromethoxy)methyl]-2-(5-{[(3R,5R)-5-fluoro-1-methylpiperidin-3-yl]amino}-2H-pyrazolo[3,4-d][1,3]thiazol-2-yl)-5-methylphenol] | > 30000 | 22
COCc1cc(C)cc(O)c1-n1cc2sc(N[C@@H]3C[C@@H](F)CN(C)C3)nc2n1 [Example 177, 2-(5-{[(3R,5R)-5-fluoro-1-methylpiperidin-3-yl]amino}-2H-pyrazolo[3,4-d][1,3]thiazol-2-yl)-3-(methoxymethyl)-5-methylphenol] | > 30000 | 40

Other lines, results leading:

IC50 (NF-κB pathway) [nM] | IC50 (NLRP3 inflammasome) [nM] | SMILES
> 10000 | 2000 | COC(=O)N1CC[C@H](Nc2nc3nn(-c4c(C)cc(C)cc4O)cc3s2)C1 [Example 156, methyl (3S)-3-{[2-(2-hydroxy-4,6-dimethylphenyl)-2H-pyrazolo[3,4-d][1,3]thiazol-5-yl]amino}pyrrolidine-1-carboxylate]
> 30000 | 330 | Cc1cc(C)c(-n2cc3sc(N[C@@H]4CCOC4)nc3n2)c(O)c1 [Example 157, 3,5-dimethyl-2-(5-{[(3R)-oxolan-3-yl]amino}-2H-pyrazolo[3,4-d][1,3]thiazol-2-yl)phenol]
> 30000 | 660 | Cc1cc(C)c(-n2cc3sc(N[C@H]4CCOC4)nc3n2)c(O)c1 [Example 158, 3,5-dimethyl-2-(5-{[(3S)-oxolan-3-yl]amino}-2H-pyrazolo[3,4-d][1,3]thiazol-2-yl)phenol]
> 30000 | 260 | Cc1cc(C)c(-n2cc3sc(NC4COCC4O)nc3n2)c(O)c1 (stereo not shown) [Example 159, 4-{[2-(2-hydroxy-4,6-dimethylphenyl)-2H-pyrazolo[3,4-d][1,3]thiazol-5-yl]amino}oxolan-3-ol]
> 30000 | 1300 | Cc1cc(C)c(-n2cc3sc(N[C@H]4CN(C)CC4(F)F)nc3n2)c(O)c1 [Example 160, 2-(5-{[(3S)-4,4-difluoro-1-methylpyrrolidin-3-yl]amino}-2H-pyrazolo[3,4-d][1,3]thiazol-2-yl)-3,5-dimethylphenol]
> 30000 | 450 | Cc1cc(C)c(-n2cc3sc(N[C@@H]4CCCC[C@H]4O)nc3n2)c(O)c1 [Example 162, 2-(5-{[(1R,2R)-2-hydroxycyclohexyl]amino}-2H-pyrazolo[3,4-d][1,3]thiazol-2-yl)-3,5-dimethyl-phenol]
> 30000 | 1800 | Cc1cc(C)c(-n2cc3sc(N[C@@H]4COCC[C@H]4O)nc3n2)c(O)c1 [Example 165, 1,5-anhydro-2,4-dideoxy-2-{[2-(2-hydroxy-4,6-dimethylphenyl)-2H-pyrazolo[3,4-d][1,3]thiazol-5-yl]amino}-D-threo-pentitol]
> 30000 | 350 | Cc1cc(C)c(-n2cc3sc(N[C@@H]4CCOC[C@H]4O)nc3n2)c(O)c1 [Example 167, 1,5-anhydro-2,3-dideoxy-3-{[2-(2-hydroxy-4,6-dimethylphenyl)-2H-pyrazolo[3,4-d][1,3]thiazol-5-yl]amino}-D-threo-pentitol]
> 30000 | 430 | Cc1cc(C)c(-n2cc3sc(NC45CC(O)(C4)C5)nc3n2)c(O)c1 [Example 169, 3-{[2-(2-hydroxy-4,6-dimethylphenyl)-2H-pyrazolo[3,4-d][1,3]thiazol-5-yl]amino} bicyclo[1.1.1]pentan-1-ol]
> 30000 | 8400 | Cc1cc(C)c(-n2cc3sc(N[C@H]4C[C@@H](F)CN(C)C4)nc3n2)c(O)c1 [Example 178, 2-(5-{[(3S,5R)-5-fluoro-1-methylpiperidin-3-yl]amino}-2H-pyrazolo[3,4-d][1,3]thiazol-2-yl)-3,5-dimethylphenol]
> 30000 | 94 | Cc1cc(C)c(-n2cc3sc(N[C@@H]4C[C@H](F)CN(C)C4)nc3n2)c(O)c1 [Example 179, 2-(5-{[(3R,5S)-5-fluoro-1-methylpiperidin-3-yl]amino}-2H-pyrazolo[3,4-d][1,3]thiazol-2-yl)-3,5-dimethylphenol]
> 30000 | 4200 | Cc1cc(C)c(-n2cc3sc(N[C@H]4C[C@H](F)CN(C)C4)nc3n2)c(O)c1 [Example 180, 2-(5-{[(3S,5S)-5-fluoro-1-methylpiperidin-3-yl]amino}-2H-pyrazolo[3,4-d][1,3]thiazol-2-yl)-3,5-dimethylphenol]
> 30000 | 340 | CCNc1nc2nn(-c3c(C)cc(C)cc3O)cc2s1 [Example 181, 2-[5-(ethylamino)-2H-pyrazolo[3,4-d][1,3]thiazol-2-yl]-3,5-dimethylphenol]
